These results are taken from ChEMBL document CHEMBL1201862, “PubChem BioAssay data set” (2004).

Test systems include Hs-578T; SK-MEL-28; HCT-116; DU-145; A549; SK-MEL-2; OVCAR-8; CCRF-CEM; COLO 205; HOP-92; SK-MEL-5; MCF7; HCT-15; HCC 2998; SNB-75; A498; SF-295; OVCAR-5; SK-OV-3; SNB-19.
Assay in all cases: NCI-60 cell line screen, 48 h

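Grown in 96-well plates, cells were treated for 48 hours with each compound at five concentrations. Insufficient inhibition: endpoint recorded as highest concentration tested. Here, GI50 denotes the concentration required for 50% inhibition of growth.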 Activity calls are given as the source filed them. No stated cut-off is given here; in the data, active = GI50 up to about 1.1 µM and inactive = higher. Where a SMILES comes first, the peptide text is derived from it. [ ]: non-standard residue; d: D form. Phe(4-NO2) = N[CH](Cc1ccc([N+](=O)[O-])cc1)C(=O)O Bounds are passed on as bounds.

`CC(NC(=O)C(Cc1ccc([N+](=O)[O-])cc1)NC(=O)C(N)CCCCN)C(=O)NC(Cc1ccc([N+](=O)[O-])cc1)C(N)=O` (stereo not given) (H-K[Phe(4-NO2)]A[Phe(4-NO2)]-NH2; configuration not given here): the GI50 was > 68.7 µM (inactive) in the assay on Hs-578T; 75.7 µM (inactive) in the assay on SK-MEL-28; > 45.2 µM (inactive) in the assay on HCT-116; 53.5 µM (inactive) with DU-145; 23 µM (inactive) with A549; 51.5 µM (inactive) in the assay with SK-MEL-2. Also, the GI50 is 23.9 µM (inactive) with OVCAR-8; > 100 µM (inactive) in the assay on CCRF-CEM; > 52.7 µM (inactive) in the assay with COLO 205; 28.3 µM (inactive) in the assay with HOP-92; 35.8 µM (inactive) in the assay on SK-MEL-5; > 40.7 µM (inactive) with MCF7. Moreover, the GI50 in the assay with HCT-15 was 56.6 µM; with HCC 2998, 28.1 µM (inactive); with SNB-75 it was > 37.5 µM (inactive); in the assay on A498, 85.5 µM (inactive); in the assay on SF-295, 32.7 µM (inactive); in the assay with OVCAR-5 it was > 100 µM (inactive). The GI50 with SK-OV-3 is > 100 µM (inactive); in the assay with SNB-19, > 85.3 µM (inactive).

On to `COc1c2c3c4c(c(OC)c(=O)c5c(O)cc(OC)c(c6c(OC)cc(O)c(c1=O)c63)c54)C(C(C)O)C2C(C)=O` (stereo not given), for which the GI50 in the assay with Hs-578T was 0.593 µM (active); in the assay on SK-MEL-28 it was 0.189 µM (active); with HCT-116, 0.385 µM (active); in the assay with DU-145 it was 0.641 µM (active); with A549, 0.353 µM (active); in the assay on SK-MEL-2 it was 0.738 µM (active). Besides, the GI50 is 0.321 µM (active) in the assay with OVCAR-8; 0.269 µM (active) in the assay on CCRF-CEM; 0.571 µM (active) in the assay on COLO 205; 0.225 µM (active) in the assay with HOP-92; 0.138 µM (active) with SK-MEL-5; 0.603 µM (active) with MCF7. The GI50 in the assay with HCT-15 is 0.652 µM; with HCC 2998, 0.481 µM (active); with SNB-75, 0.256 µM (active); with A498, 0.628 µM (active); in the assay with SF-295, 0.256 µM (active); in the assay with OVCAR-5, 0.603 µM (active). In addition, the GI50 was 0.826 µM (active) with SK-OV-3 and 0.264 µM (active) with SNB-19.

`Cc1cccc(-c2cc(O)c3ccc(C)nc3n2)c1`: the GI50 in the assay with Hs-578T was 0.337 µM (active); in the assay on SK-MEL-28, 2.75 µM (inactive); with HCT-116 it was 0.297 µM (active); in the assay with DU-145 it was 0.598 µM (active); in the assay with A549 it was 0.508 µM (active); in the assay with SK-MEL-2 it was 0.421 µM (active). For the same compound, the GI50 was 0.8 µM (active) with OVCAR-8; 0.354 µM (active) in the assay with CCRF-CEM; 0.14 µM (active) in the assay on COLO 205; 1.14 µM (inactive) with HOP-92; 0.0895 µM (active) with SK-MEL-5; 0.443 µM (active) in the assay on MCF7. Further, the GI50 in the assay on HCT-15 was 0.194 µM; with HCC 2998, 1.07 µM (active); in the assay with SNB-75, 0.233 µM (active); with A498 it was 0.644 µM (active); in the assay with SF-295 it was 0.278 µM (active); in the assay on OVCAR-5, 0.723 µM (active). Also, the values for the GI50 in the assay on SK-OV-3 and with SNB-19 were 0.656 µM (active) and 0.506 µM (active), respectively.

In the case of `Cc1ccc(NC(=S)N/N=C(/c2ccccc2)c2ccccn2)cc1`, the GI50 in the assay on Hs-578T was 13.1 µM (inactive); with SK-MEL-28 it was 0.224 µM (active); in the assay on HCT-116 it was < 0.01 µM (active); with DU-145, 0.938 µM (active); in the assay with A549, 0.108 µM (active); with SK-MEL-2, 4.52 µM (inactive). In addition, the GI50 is 0.0569 µM (active) with OVCAR-8; 0.0109 µM (active) with CCRF-CEM; < 0.0166 µM (active) in the assay with COLO 205; 0.278 µM (active) in the assay with HOP-92; 0.0933 µM (active) in the assay with SK-MEL-5; 0.0164 µM (active) in the assay with MCF7. The GI50 with HCT-15 was under 0.019 µM; in the assay on HCC 2998, 2.22 µM (inactive); in the assay with SNB-75, 0.343 µM (active); in the assay on A498, 0.815 µM (active); in the assay on SF-295, 0.212 µM (active); in the assay on OVCAR-5, 0.0233 µM (active). The figures for the GI50 in the assay on SK-OV-3 and in the assay with SNB-19 were 0.0308 µM (active) and 3.27 µM (inactive), respectively.

With `CC(=O)c1[nH]c(NCc2ccccc2)c(C(=S)Nc2ccccc2)c1N`, the GI50 was 24 µM (inactive) in the assay on Hs-578T; 24.2 µM (inactive) with SK-MEL-28; 18.4 µM (inactive) in the assay on HCT-116; 28.8 µM (inactive) in the assay with DU-145; 27 µM (inactive) in the assay on A549; 0.258 µM (active) in the assay on SK-MEL-2. Moreover, the GI50 is 18.6 µM (inactive) in the assay on OVCAR-8; 28.1 µM (inactive) in the assay on CCRF-CEM; 28.4 µM (inactive) with COLO 205; 14.9 µM (inactive) with HOP-92; 17.1 µM (inactive) with SK-MEL-5; 19.3 µM (inactive) in the assay with MCF7. The GI50 was 19.1 µM in the assay on HCT-15; 20.5 µM (inactive) with HCC 2998; > 100 µM (inactive) in the assay on SNB-75; 17.9 µM (inactive) with A498; 25.6 µM (inactive) in the assay on SF-295; 24.3 µM (inactive) with OVCAR-5. The figures for the GI50 with SK-OV-3 and in the assay with SNB-19 were > 100 µM (inactive) and 34.3 µM (inactive), respectively.

Regarding `CC1NC(=O)c2c(-c3ccccc3)nn(-c3ccccc3)c2NC1=O` (stereo not given), the GI50 in the assay on Hs-578T, in the assay with SK-MEL-28, in the assay with HCT-116, in the assay on DU-145, in the assay with A549 and in the assay with SK-MEL-2 was > 100 µM (inactive) each time. Moreover, the GI50 with OVCAR-8, in the assay with CCRF-CEM, in the assay with COLO 205, in the assay with HOP-92, in the assay with SK-MEL-5 and in the assay with MCF7 was > 100 µM (inactive) each time. In addition, the GI50 in the assay on HCT-15 is over 100 µM; with HCC 2998, > 100 µM (inactive); in the assay with SNB-75 it was > 100 µM (inactive); with A498 it was > 100 µM (inactive); in the assay with SF-295, > 100 µM (inactive); in the assay with OVCAR-5 it was > 100 µM (inactive). For the same compound, the GI50 with SK-OV-3 and in the assay on SNB-19 was > 100 µM (inactive) each time.
